Where “and” joins values, the source holds several entries; their conditions need not be identical. Equal entries are not always repeated.
Test system: PfSTART1
Experiment: PfSTART1 knock-down by glucosamine (glmS riboswitch), Western blot densitometry
Assay type: cell-based, Plasmodium falciparum
Conditions: 2.5 mM GlcN; for START densitometry, Norm 0 mM [EXP2]: one value per biological replicate; for START densitometry, norm 0/EXP2: START band normalised to EXP2, then to 0 mM GlcN of the same line; for START densitometry, norm 0/EXP2 / START densitometry, norm 0/HSP / START densitometry, norm 3D7, EXP2 / START densitometry, norm 3D7, HSP70: 3 biological replicates; for START densitometry, norm 0/HSP: START band normalised to HSP70, then to 0 mM GlcN of the same line; for START densitometry, norm 3D7, EXP2: START/EXP2 relative to 3D7 at 0 mM GlcN (=1.00E+02); for START densitometry, norm 3D7, HSP70: START/HSP70 relative to 3D7 at 0 mM GlcN (=1.00E+02); for PfSTART1 knockdown: 48 h
Protocol: Parasites were prepared for the stage of interest and proteins were extracted using a saponin-lysis (unless indicated otherwise). For knock-down assays, parasites were exposed to 0 or 2.5 mM GlcN for 48 h (starting from late schizont/early rings): the day before harvesting schizonts, 30 nM ML10 (LifeArc) was also added to the cultures to block egress. Infected red blood cells were lysed 10 min on ice with 0.1% saponin in PBS complemented with 1x Protease Inhibitors Cocktail (Roche; PBS + PI). Parasites were pelleted and washed with PBS + PI to remove haemoglobin. […] Protein samples were centrifuged at 15,000 g, then run on a pre-cast 4-12% NuPAGE Bis-Tris gel (Invitrogen) and proteins were transferred onto a nitrocellulose membrane using iBlot (Invitrogen). Membranes were exposed to the primary antibody overnight at 4 °C, to the secondary antibody 1 h at room temperature, and fluorescence was measured using an Odyssey imaging system, which was also used to measure densitometry. The list of antibodies used, their dilution, and origins are described in Table S3.

## N[C@H]1C(O)O[C@H](CO)[C@@H](O)[C@@H]1O (some centres unmarked) [GlcN, glucosamine]
3D7
  START densitometry, Norm 0 mM [EXP2]: 1.02E+02 and 1.14E+02 and 9.72E+01
3D7 parasites
  START densitometry, norm 0/EXP2: 1.29E+02 and 9.38E+01 and 8.16E+01
  START densitometry, norm 0/HSP: 1.32E+02 and 1.01E+02 and 9.77E+01
  START densitometry, norm 3D7, EXP2: 1.29E+02 and 9.38E+01 and 8.16E+01
  START densitometry, norm 3D7, HSP70: 1.32E+02 and 1.01E+02 and 9.77E+01
CR-N309K parasites
  START densitometry, norm 0/EXP2: 1.17E+01 and 2.98E+01 and 1.90E+01
  START densitometry, norm 0/HSP: 2.14E+01 and 2.66E+01 and 2.27E+01
  START densitometry, norm 3D7, EXP2: 1.40E+01 and 3.50E+01 and 1.71E+01
  START densitometry, norm 3D7, HSP70: 1.73E+01 and 1.93E+01 and 2.63E+01
CR-N309K schizonts
  PfSTART1 knockdown: 81%
CR-N330K parasites
  START densitometry, norm 0/EXP2: 1.02E+01 and 3.10E+01 and 7.15E+00
  START densitometry, norm 0/HSP: 2.77E+01 and 2.71E+01 and 1.13E+01
  START densitometry, norm 3D7, EXP2: 1.13E+01 and 3.35E+01 and 1.19E+01
  START densitometry, norm 3D7, HSP70: 2.31E+01 and 2.22E+01 and 2.51E+01
CR-N330K schizonts
  PfSTART1 knockdown: 84%
CR-WT parasites
  START densitometry, norm 0/EXP2: 2.42E+01 and 2.14E+01 and 2.95E+01
  START densitometry, norm 0/HSP: 2.70E+01 and 2.58E+01 and 2.79E+01
  START densitometry, norm 3D7, EXP2: 3.52E+01 and 2.52E+01 and 2.73E+01
  START densitometry, norm 3D7, HSP70: 2.33E+01 and 2.02E+01 and 4.40E+01
CR-WT schizonts
  PfSTART1 knockdown: 75%
SLI-N309K schizonts
  PfSTART1 knockdown: 43%
SLI-N309K
  START densitometry, Norm 0 mM [EXP2]: 5.39E+01 and 7.05E+01 and 4.74E+01
SLI-N330K schizonts
  PfSTART1 knockdown: 70%
SLI-N330K
  START densitometry, Norm 0 mM [EXP2]: 2.99E+01 and 2.84E+01 and 3.23E+01
SLI-WT schizonts
  PfSTART1 knockdown: 60%
SLI-WT
  START densitometry, Norm 0 mM [EXP2]: 5.15E+01 and 2.89E+01 and 3.95E+01

Source: paper PMC11189555, “Aryl amino acetamides prevent Plasmodium falciparum ring development via targeting the lipid-transfer protein PfSTART1” (Nature Communications, 2024)
